Source: patent US8778958B2, “Synthesis of metabolically stable agents for alcohol and drug abuse” (priority 2008, dated 2014)
Like-named read-outs stand apart in the source and are kept apart here.

Experiments:
Solubility in H2O = conditions: for Solubility in H2O: salt as labelled; for solubility: water
δ-opioid receptor = target: T1, δ-opioid receptor (Homo sapiens, UniProt P41143); test: biochemical; type: binding; conditions: Table 1b, N-oxides
T1 construct: expressed in transfected cells; host or cells: CHO cells

μ-opioid receptor = target: T2, μ-opioid receptor (Homo sapiens, UniProt P35372); test: biochemical; type: binding
T2 construct: expressed in transfected cells; host or cells: CHO cells

κ-opioid receptor = target: T3, κ-opioid receptor (Homo sapiens, UniProt P41145); test: biochemical; type: binding; conditions: read-out: Ki (nM) ± SEM, κ
T3 construct: expressed in transfected cells; host or cells: CHO cells

[1] = Ki (nM) ± SEM, μ, Table 1b, N-oxides

T3 sequence (P41145 whole entry): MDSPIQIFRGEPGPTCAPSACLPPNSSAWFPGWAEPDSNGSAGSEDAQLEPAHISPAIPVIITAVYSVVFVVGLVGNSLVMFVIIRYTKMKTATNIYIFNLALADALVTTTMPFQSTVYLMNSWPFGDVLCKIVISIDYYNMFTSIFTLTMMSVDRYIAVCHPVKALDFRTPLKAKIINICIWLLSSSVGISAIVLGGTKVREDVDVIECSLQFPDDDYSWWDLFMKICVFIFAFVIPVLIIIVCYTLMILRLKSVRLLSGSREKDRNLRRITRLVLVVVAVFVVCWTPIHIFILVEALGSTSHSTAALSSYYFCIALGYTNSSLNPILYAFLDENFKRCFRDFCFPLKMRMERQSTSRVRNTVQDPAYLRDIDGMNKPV
T2 sequence (P35372 whole entry): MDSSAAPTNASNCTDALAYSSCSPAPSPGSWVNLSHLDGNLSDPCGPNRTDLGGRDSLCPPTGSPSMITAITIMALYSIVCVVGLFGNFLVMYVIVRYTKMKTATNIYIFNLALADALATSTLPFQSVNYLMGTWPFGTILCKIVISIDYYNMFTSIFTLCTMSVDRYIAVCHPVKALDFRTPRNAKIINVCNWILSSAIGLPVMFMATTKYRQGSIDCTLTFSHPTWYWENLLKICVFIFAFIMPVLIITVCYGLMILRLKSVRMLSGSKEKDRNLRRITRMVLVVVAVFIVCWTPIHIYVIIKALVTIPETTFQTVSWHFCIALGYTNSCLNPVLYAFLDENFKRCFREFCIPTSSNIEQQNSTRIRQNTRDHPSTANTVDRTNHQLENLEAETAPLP
T1 sequence (P41143 whole entry): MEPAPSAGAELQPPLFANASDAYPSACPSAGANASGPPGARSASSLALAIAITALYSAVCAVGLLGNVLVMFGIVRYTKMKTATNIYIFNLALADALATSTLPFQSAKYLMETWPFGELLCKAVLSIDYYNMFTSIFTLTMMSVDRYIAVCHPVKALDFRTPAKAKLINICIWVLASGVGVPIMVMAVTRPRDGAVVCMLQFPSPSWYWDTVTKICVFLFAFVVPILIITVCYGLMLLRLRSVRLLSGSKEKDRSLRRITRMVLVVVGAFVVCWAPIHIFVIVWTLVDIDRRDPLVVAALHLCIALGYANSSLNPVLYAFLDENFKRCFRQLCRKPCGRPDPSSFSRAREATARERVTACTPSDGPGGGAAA

Which “Solubility in H2O” value (Solubility in H2O) does the source give for `CN(C(=O)c1ccc(I)cc1)[C@@H]1CC[C@@]2(O)[C@H]3Cc4ccc(O)c5c4[C@@]2(CCN3CC2CC2)[C@H]1O5.O=C(O)C(=O)O` [15b—Oxalate, 6-β-(4′-Iodo)-N-methylbenzamido-14-hydroxy-17-(cyclopropylmethyl)nordesmorphine oxalate] here?
The value was 20000 µg/mL.

With `Cc1ccc(C(=O)N[C@@H]2CC[C@@]3(O)[C@H]4Cc5ccc(O)c6c5[C@@]3(CCN4CC3CC3)[C@H]2O6)cc1.O=C(O)C(=O)O` [Compound 4-oxalate, 6-β-(4′-Methyl)benzamido-14-hydroxy-17-(cyclopropylmethyl) nordesmorphine oxalate] as the compound, how does the “Solubility in H2O” value (Solubility in H2O) read?
Its value is 2000 µg/mL.

With `O=C(N[C@@H]1CC[C@@]2(O)[C@H]3Cc4ccc(O)c5c4[C@@]2(CCN3CC2CC2)[C@H]1O5)c1ccc(C(F)(F)F)cc1.O=C(O)C(=O)O` [Compound 5-oxalate, 6-β-(4′-Trimethylfluoro)benzamido-14-hydroxy-17-(cyclopropylmethyl)nordesmorphine-oxalate] as the compound, how does the “Solubility in H2O” value (Solubility in H2O) read?
The value was 1000 µg/mL.

Which “Solubility in H2O” value (Solubility in H2O) does the source give for `CN(C(=O)c1ccc(Cl)cc1)[C@H]1CC[C@@]2(O)[C@H]3Cc4ccc(O)c5c4[C@@]2(CCN3CC2CC2)[C@H]1O5.O=C(O)C(=O)O` [17a—Oxalate, 6-α-(4′-Chloro)-N-methylbenzamido-14-hydroxy-17-(cyclopropylmethyl)nordesmorphine oxalate] here?
The value was 10000 µg/mL.

For `CN(C(=O)/C=C/c1ccoc1)[C@H]1CC[C@@]2(O)[C@H]3Cc4ccc(O)c5c4[C@@]2(CCN3CC2CC2)[C@H]1O5.O=C(O)C(=O)O` (relative stereo) [20a—Oxalate, 17-Cyclopropylmethyl-3,14β-dihydroxy-4,5α-epoxy-6α-[N-methyl-trans-3-(3-furyl)acrylamido]morphinan oxalate], which solubility (Solubility in H2O) is on record?
The solubility was 16000 µg/mL.

For `CN(C(=O)c1ccc(Br)cc1)[C@@H]1CC[C@@]2(O)[C@H]3Cc4ccc(O)c5c4[C@@]2(CCN3CC2CC2)[C@H]1O5.O=C(O)C(=O)O` [14b. Oxalate, 6-β-(4′-Bromo)-N-methylbenzamido-14-hydroxy-17-(cyclopropylmethyl)nordesmorphine Oxalate], which “Solubility in H2O” value (Solubility in H2O) is on record?
Its value is 20000 µg/mL.

With `CN(C(=O)c1ccc(Cl)c(Cl)c1)[C@@H]1CC[C@@]2(O)[C@H]3Cc4ccc(O)c5c4[C@@]2(CCN3CC2CC2)[C@H]1O5.O=C(O)C(=O)O` [18b—Oxalate, 6-β-(3′,4′-Dichloro)-N-methylbenzamido-14-hydroxy-17-(cyclopropylmethyl)nordesmorphine oxalate] as the compound, how does the “Solubility in H2O” value (Solubility in H2O) read?
The value was 16000 µg/mL.

For `CN(C(=O)c1ccc(C(C)(C)C)cc1)[C@H]1CC[C@@]2(O)[C@H]3Cc4ccc(O)c5c4[C@@]2(CCN3CC2CC2)[C@H]1O5.O=C(O)C(=O)O` [16a—Oxalate, 6-α-(4′-t-Butyl)-N-methylbenzamido-14-hydroxy-17-(cyclopropylmethyl)nordesmorphine oxalate], which “Solubility in H2O” value (Solubility in H2O) is on record?
The value was 3300 µg/mL.

With `CC(C)(C)c1ccc(C(=O)N[C@@H]2CC[C@@]3(O)[C@H]4Cc5ccc(O)c6c5[C@@]3(CCN4CC3CC3)[C@H]2O6)cc1.O=C(O)C(=O)O` [Compound 8-oxalate, 6-β-(4′-t-Butyl)benzamido-14-hydroxy-17-(cyclopropylmethyl)nordesmorphine-oxalate] as the compound, how does the “Solubility in H2O” value (Solubility in H2O) read?
Its value is 6000 µg/mL.

With `CN(C(=O)c1ccc(Cl)c(Cl)c1)[C@H]1CC[C@@]2(O)[C@H]3Cc4ccc(O)c5c4[C@@]2(CCN3CC2CC2)[C@H]1O5.O=C(O)C(=O)O` [18a—Oxalate, 6-α-(3′,4′-Dichloro)-N-methylbenzamido-14-hydroxy-17-(cyclopropylmethyl)nordesmorphine oxalate] as the compound, how does the “Solubility in H2O” value (Solubility in H2O) read?
Its value is 6700 µg/mL.

For `CN(C(=O)c1ccc(I)cc1)[C@H]1CC[C@@]2(O)[C@H]3Cc4ccc(O)c5c4[C@@]2(CCN3CC2CC2)[C@H]1O5.O=C(O)C(=O)O` [15a—Oxalate, 6-α-(4′-Iodo)-N-methylbenzamido-14-hydroxy-17-(cyclopropylmethyl)nordesmorphine oxalate], which “Solubility in H2O” value (Solubility in H2O) is on record?
The value was 5000 µg/mL.

With `CN(C(=O)c1ccc(Cl)cc1)[C@@H]1CC[C@@]2(O)[C@H]3Cc4ccc(O)c5c4[C@@]2(CCN3CC2CC2)[C@H]1O5.O=C(O)C(=O)O` [17b—Oxalate, 6-β-(4′-Chloro)-N-methylbenzamido-14-hydroxy-17-(cyclopropylmethyl)nordesmorphine oxalate] as the compound, how does the “Solubility in H2O” value (Solubility in H2O) read?
Its value is 6000 µg/mL.

Which solubility (Solubility in H2O) does the source give for `CN(C(=O)/C=C/c1ccoc1)[C@@H]1CC[C@@]2(O)[C@H]3Cc4ccc(O)c5c4[C@@]2(CCN3CC2CC2)[C@H]1O5.O=C(O)C(=O)O` (relative stereo) [Compound 20b-oxalate, 17-Cyclopropylmethyl-3,14β-dihydroxy-4,5α-epoxy-6β-[N-methyl-trans-3-(3-furyl)acrylamido]morphinan oxalate] here?
The solubility was 32000 µg/mL.

Which “Solubility in H2O” value (Solubility in H2O) does the source give for `CN(C(=O)c1ccc(C(F)(F)F)cc1)[C@@H]1CC[C@@]2(O)[C@H]3Cc4ccc(O)c5c4[C@@]2(CCN3CC2CC2)[C@H]1O5.O=C(O)C(=O)O` [13b—Oxalate, 6-β-(4′-Trifluoromethyl)-N-methylbenzamido-14-hydroxy-17-(cyclopropylmethyl)nordesmorphine oxalate] here?
The value was 4700 µg/mL.

Which results are given for `CN(C(=O)c1ccc(C(C)(C)C)cc1)[C@@H]1CC[C@@]2(O)[C@H]3Cc4ccc(O)c5c4[C@@]2(CC[N+]3([O-])CC2CC2)[C@H]1O5` (stereo partly drawn) [Compound 27, 17-Cyclopropylmethyl-3,14β-dihydroxy-4,5α-epoxy-6β-N-methyl[(4′-tert-butyl)benzamido]morphinan-N-oxide]?
Ki (δ-opioid receptor; read-out: Ki (nM) ± SEM, δ): 535 ± 43.8 nM; Ki (μ-opioid receptor; read-out: Ki (nM) ± SEM, μ): 714 ± 66 nM; Ki (κ-opioid receptor; Table 1b, N-oxides): 72 ± 12.6 nM

Which Ki (δ-opioid receptor; Ki (nM) ± SEM, δ) does the source give for `CN(C(=O)/C=C/c1ccoc1)[C@@H]1CC[C@@]2(O)[C@H]3Cc4ccc(O)c5c4[C@@]2(CC[N+]3([O-])CC2CC2)[C@H]1O5` (relative stereo) [Compound 44, 17-Cyclopropylmethyl-3,14β-dihydroxy-4,5α-epoxy-6β-[N-methyl-trans-3-(3-furyl)acrylamido]morphinan-N-oxide] here?
Its Ki is 2510 ± 231 nM.

And the Ki (μ-opioid receptor; [1])?
The Ki was 65 ± 7.7 nM.

And the Ki (κ-opioid receptor)?
The Ki was 3.9 ± 0.5 nM.

Which Ki (δ-opioid receptor; Ki (nM) ± SEM, δ) does the source give for `O=C(N[C@@H]1CC[C@@]2(O)[C@H]3Cc4ccc(O)c5c4[C@@]2(CC[N+]3([O-])CC2CC2)[C@H]1O5)c1ccc(Br)cc1` (stereo partly drawn) [Compound 63, 17-Cyclopropylmethyl-3,14β-dihydroxy-4,5α-epoxy-6β-[(4′-bromo)benzamido]morphinan-N-oxide] here?
Its Ki is 246 ± 15 nM.

What about the Ki (μ-opioid receptor; [1]) of the same compound?
Its Ki is 7 ± 0.1 nM.

What about the Ki (κ-opioid receptor) of the same compound?
Its Ki is 6.3 ± 0.6 nM.

Which Ki (δ-opioid receptor; Ki (nM) ± SEM, δ) does the source give for `O=C(Cc1ccccc1)N[C@@H]1CC[C@@]2(O)[C@H]3Cc4ccc(O)c5c4[C@@]2(CC[N+]3([O-])CC2CC2)[C@H]1O5` (stereo partly drawn) [Compound 33, 17-Cyclopropylmethyl-3,14β-dihydroxy-4,5α-epoxy-6β-(phenylacetamido)morphinan-N-oxide] here?
Its Ki is 1400 ± 40.5 nM.

What about the Ki (μ-opioid receptor; [1]) of the same compound?
The Ki was 43 ± 3 nM.

And the Ki (κ-opioid receptor)?
The Ki was 47 ± 4 nM.

With `O=C(NC1CCC2(O)C3Cc4ccc(O)c5c4C2(CC[N+]3([O-])CC2CC2)C1O5)c1ccc(Cl)c(F)c1` (stereo not drawn) [Compound 59, 17-Cyclopropylmethyl-3,14β-dihydroxy-4,5α-epoxy-6β-[(4′-chloro-3′-fluoro)benzamido]morphinan-N-oxide] as the compound, how does the Ki (δ-opioid receptor; Ki (nM) ± SEM, δ) read?
Its Ki is 390 ± 18 nM.

What about the Ki (μ-opioid receptor; [1]) of the same compound?
The Ki was 14.1 ± 0.5 nM.

And the Ki (κ-opioid receptor)?
The Ki was 2.5 ± 0.09 nM.

Which Ki (δ-opioid receptor; read-out: Ki (nM) ± SEM, δ) does the source give for “17-Cyclopropylmethyl-3,14-β-dihydroxy-4,5α-epoxy-6α-N-methyl-(3′,4′-dichloro)morphinan-N-oxide [Compound 51]” here?
The Ki was 120 ± 5 nM.

What about the Ki (μ-opioid receptor; read-out: Ki (nM) ± SEM, μ) of the same compound?
The Ki was 7.3 ± 0.2 nM.

What about the Ki (κ-opioid receptor; Table 1b, N-oxides) of the same compound?
Its Ki is 2 ± 0.09 nM.

For `CN(C(=O)c1ccc(C(C)(C)C)cc1)[C@H]1CC[C@@]2(O)[C@H]3Cc4ccc(O)c5c4[C@@]2(CC[N+]3([O-])CC2CC2)[C@H]1O5` (some centres unmarked) [Compound 48], which Ki (δ-opioid receptor; read-out: Ki (nM) ± SEM, δ) is on record?
Its Ki is 148 ± 10 nM.

What about the Ki (μ-opioid receptor; read-out: Ki (nM) ± SEM, μ) of the same compound?
Its Ki is 26 ± 2 nM.

And the Ki (κ-opioid receptor; Table 1b, N-oxides)?
The Ki was 14 ± 1 nM.
